Assays:
r(CUG)109 = test: Competition dialysis with various RNAs and MBNL1; assay type: binding; details: for loading onto r(CUG)109: 5 μM small molecule
Protocol: The selectivities of compounds 1, 16, and 17 were measured by competition dialysis using various RNA and protein targets. RNA targets included a mimic of the human rRNA A-site, the MBNL1-binding site in the cTNT pre-mRNA, an RNA with GC base pairs, and RNAs with different numbers of r(CUG) repeats (r(CUG)1×2, r(CUG)6×2, and r(CUG)109, an expanded repeat of a length causative of disease^(23)) (FIG. 3A). […] Binding to MBNL1 was also evaluated to assess the propensity of the compounds to bind MBNL1 over r(CUG)^exp.
Competition dialysis was performed using Pierce Slide-A-Lyzer MINI dialyzer units with a 3,500 Da molecular weight cutoff. The RNAs evaluated were folded by heating an 8 μM solution of RNA in 199 μL 1× Dialysis Buffer (8 mM NaH2PO4, pH 7.2, 185 mM NaCl and 1 mM EDTA) at 65° C. for 5 min followed by slowly cooling to room temperature on the bench top. Then, 1 μL of 1 mM small molecule was added (5 μM final concentration), and the solution was transferred to the dialyzer units (100 μL samples in duplicate). The dialyzer units were then placed in 150 mL of 5 μM small molecule in 1× Dialysis Buffer and stirred at 200 rpm at 4° C. for 48 h. Following equilibration, 90 μL of each sample was transferred to a microcentrifuge tube and treated with 10 μL of 10% SDS to dissociate the ligand. The total ligand concentration (Ct) within each dialysis unit was quantified spectrophotometrically using the appropriate absorbance wavelength and extinction coefficient for each compound. […] The bound ligand concentration (Cb) was then determined using equation 1: […]
where Cb, Ct, and Cf are concentrations of bound, total, and free ligand, respectively.

r(CUG)960 = test: Competitive ChemCLIP (C-ChemCLIP) target pull-down with 2H-4-CA-Biotin, qRT-PCR; assay type: cell-based; details: HeLa cells with DM1 mini-gene; 100 nM 2H-4-CA-Biotin and 10 μM compound
Protocol: The biological targets of Formula (I) compounds were further investigated by using Competitive ChemCLIP (C-ChemCLIP) (FIG. 4B).(48, 49) In ChemCLIP, an RNA-binding compound is appended with: (i) a reactive module (chlorambucil; CA) that cross-links to the RNAs that the small molecule binds in cellulo; and (ii) a biotin moiety for facile pull-down and isolation of those targets.^(49) The pulled-down fraction is then analyzed by qRT-PCR. In this particular application, we used C-ChemCLIP using a previously studied compound, 2H-4-CA-Biotin, that binds and cross-links to r(CUG)^exp in cellulo.^(49) If exemplary Formula (I) compounds also engage r(CUG)^exp in cellulo, then the amount of the RNA pulled down by 2H-4-CA-Biotin should decrease as a function of 1, 16, or 17 concentration.
Cells were transfected with 10 μg of plasmid expressing the DM1 mini-gene using Lipofectamine 2000 (Invitrogen) according to the manufacturer's standard protocol. […] After 20-24 h, the cells were lysed and total RNA was harvested using Trizol reagent (Ambion) according to the manufacturer's protocol. Approximately 30 μg of total RNA was used for pull-down using 15 nmoles of streptavidin-agarose beads (Sigma-Aldrich; 15 μg/mL biotin loading) as previously described.^(49) The lysate was incubated with the beads for 1 h at room temperature with shaking at 500 rpm. The solution was removed, and the beads were washed with 500 μL aliquots of 1×PBS. Bound material was released from the beads by heating at 95° C. for 5 min in 30 μL of 95% formamide containing 10 mM EDTA, pH 8.2.
Reverse transcription reactions were carried out using qScript cDNA synthesis kit by adding ˜60 ng of either total RNA or captured RNA according to the manufacturer's protocol. Then, 30% of each cDNA sample was used for quantitative real time PCR (qPCR) analysis for each primer set. qPCR was performed on a 7900HT Fast Real-Time PCR System (Applied Biosystems) using Power SYBR Master Mix (Life Technologies). The PCR primers for the DM1/DMPK mini-gene mRNA were 5′-CGTGCAAGCGCCCAG (forward) and 5′-[…] (reverse). The PCR primers for 18S ribosomal RNA were 5′-[…] (forward) and 5′-[…] (reverse).
Cells were transfected with 10 μg of plasmid expressing the DM1 mini-gene using Lipofectamine 2000 (Invitrogen) according to the manufacturer's standard protocol. […]
Reverse transcription reactions were carried out using qScript cDNA synthesis kit by adding 150 ng of either total RNA or captured RNA according to the manufacturer's protocol. Then, 30% of each cDNA sample was used for quantitative real time PCR (qPCR) analysis for each primer set. qPCR was performed on a 7900HT Fast Real-Time PCR System (Applied Biosystems) using Power SYBR Master Mix (Life Technologies). […]

| Structure (SMILES) | loading onto r(CUG)109 (r(CUG)109; targets at 8 μM) | amount of r(CUG)^exp pulled down by 2H-4-CA-Biotin (r(CUG)960) | loading on r(CUG)109 relative to r(CUG)6×2 (r(CUG)109) [fold] | selectivity of binding for r(CUG) repeat RNAs versus other RNAs and MBNL1 (r(CUG)109; targets at 8 μM) |
| --- | --- | --- | --- | --- |
| O=C(Nc1ccc(-c2nc3cc(NC(=O)c4ccco4)ccc3[nH]2)cc1)c1ccco1 [Compound 16] | lowest loading | significantly reduced |  |  |
| O=C(Nc1ccc(-c2nc3ccccc3[nH]2)cc1)c1ccc(-c2ccc(Cl)cc2)o1 [Compound 17] | highest loading | significantly reduced | ~14 |  |
| N=C(N)Nc1ccc2nc(-c3ccc(-c4nc5ccc(NC(=N)N)cc5[nH]4)cc3)[nH]c2c1 [Compound 2GN8] |  | reduced by half |  | selectively binds r(CUG)^exp containing RNAs |
